Literature values as cited in PMC7178755 (Toxicology and applied pharmacology, 2019).
Like-named read-outs stand apart in the source and are kept apart here. Marks after values point to notes of the source that are not given here.

Key:
[1] = free BPA; female Rhesus Monkeys; 0.4 mg/kg oral; ref Taylor et al., (2015); cited from earlier work
[2] = rat uterotrophic assay; administered orally; ref Conley et al., 2016; cited from earlier work
[3] = free BPA; female CD-1 mice; 100 mg/kg gavage; ref Taylor et al., (2015); cited from earlier work
[4] = free BPA; female SD rats; 0.1 mg/kg gavage; ref Dorege et al., (2010); cited from earlier work
[5] = rat, in vivo, 100 mg/kg; cited from earlier work

Structure (SMILES)	AUC0−∞ [1]	Cmax [1] [nM]	Half-life (terminal, beta) [1] [h]	Tmax [1] [h]	ED50 [2] [mg/kg/day]	AUC0−∞ [3]	Cmax [3] [nM]	Dose-normalized AUC0−∞ [3]	Dose-normalized Cmax [3]	Tmax [3] [h]	AUC0−∞ [4]	Cmax [4] [nM]	Dose-normalized AUC0−∞ [4]	Dose-normalized Cmax [4]	time of maximum plasma concentration [5] [min]
CC(C)(c1ccc(O)cc1)c1ccc(O)cc1 [BPA, bisphenol A]	0.0589^i nmol.h/mL	17.3	8.88	1	1118.0	13.1^i nmol.h/mL	4160	29.8 (nmol.h/mL)/(mmol/kg)	9.47 (nmol/mL)/(mmol/kg)	1	0.0026^g nmol.h/mL	0.39	5.91 (nmol.h/mL)/(mmol/kg)	0.886 (nmol/mL)/(mmol/kg)	–
O=C(O)[C@H]1O[C@@H](Oc2ccc(C(c3ccc(O)cc3)(C(F)(F)F)C(F)(F)F)cc2)[C@H](O)[C@@H](O)[C@@H]1O [BPAF-glucuronide]	–	–	–	–	–	–	–	–	–	–	–	–	–	–	30
